The record followed here is paper PMC9403987 (Frontiers in Oncology, 2022).

pIC50: −log10 of the molar value.

The test system of one data set is BN2289. Put plainly: Subcutaneous BN2289 glioblastoma xenograft. As to conditions: 28 days, measured day 21. The class given is in vivo, BALB/c nude mice. The procedure: (§1) The efficacy of GLR2007 was evaluated in human GBM and breast cancer orthotopic cell-line-derived xenografts in NOD/SCID mice (Shanghai Lingchang Biotechnology Co. Ltd, Shanghai, China) and BALB/c nude mice (Shanghai Sino-British SIPPR/BK Laboratory Animal Co. Ltd, Shanghai, China), and human lung, colorectal, and liver cancer subcutaneous cell-line-derived xenografts in BALB/c nude mice (Nanjing University National Resource Center, Nanjing, China, or Beijing Anikeeper Biotech Co., Beijing, China). Mice were maintained in humidity- and temperature-controlled conditions with food and water available ad libitum. For subcutaneous models, female BALB/c nude mice were inoculated at 4–8 weeks old with 3×10^6–1×10^7 tumor cells (see Table 1 for xenograft model cell types) in the right flank for tumor development. Randomization was performed when the mean tumor volume reached 118–171 mm^3.

A further data set relates to LS174T. Nature of the data set: Cell proliferation assay. It counts as cell-based, Homo sapiens. As to conditions: colon carcinoma, 72 hours. The method, then:
(§2) To quantify cell proliferation, either the nuclei of live cells were counted following staining with 4’,6-diamidino-2-phenylindole (DAPI; Sigma-Aldrich, Burlington, MA, USA), or metabolically active cells were detected using a CellTiter-Glo assay (Promega Corporation, Madison, WI, USA). Cells from a range of human and mammalian tumor cell lines (American Type Culture Collection, Manassas, VA, USA) were seeded at 4000 cells per well in 100 μL of culture medium in a 96-well plate and incubated overnight at 37°C with 5% CO2. […] In the DAPI staining method, cells were washed using 1× phosphate-buffered saline (PBS; Gibco Thermo Fisher Scientific, Waltham, MA, USA), fixed with 4% formaldehyde, permeabilized with 0.2% Triton X-100 (Sigma-Aldrich), washed again, and stained with 1 μg/mL DAPI to visualize cell nuclei. Cells were washed with 1× PBS three times, and 100 μL 1× PBS was added to each well. Plates were scanned using an IN Cell Analyzer 2200 (GE Healthcare Life Sciences, Chicago, IL, USA) and the number of cells per well was recorded. In the CellTiter-Glo assay, 60 μL of CellTiter-Glo luminescent solution was added to each well after incubation with the test compounds, and the assay plate was scanned using a Tecan Infinite M1000 PRO microplate reader (Tecan Group AG, Männedorf, Switzerland) to record luminescent signals.

Another data set relates to Caco-2. Nature of the data set: Cell proliferation assay. It counts as cell-based, Homo sapiens. To be noted: Caco-2, colorectal carcinoma, 72 hours. The procedure: as §2
In a further data set the test system is SK-MES-1. Put plainly: Cell proliferation assay. The class given is cell-based, Homo sapiens. As to conditions: SK-MES-1, lung carcinoma, 72 hours. The method, then: as §2
The subject of a further data set is IMR32. Nature of the data set: Cell proliferation assay. It counts as cell-based, Homo sapiens. To be noted: IMR32, brain, neuroblastoma, 72 hours. The method, then: as §2
In a further data set the test system is NCI-H1299. Nature of the data set: Cell proliferation assay. It counts as cell-based, Homo sapiens. As to conditions: NCI-H1299, lung, NSCLC, 72 hours. The method, then:
as §2

For a further data set, the system named is SK-N-AS. Nature of the data set: Cell proliferation assay. It counts as cell-based, Homo sapiens. To be noted: brain, neuroblastoma, 72 hours. The method, then: as §2
Another data set deals with NCI-H1581. Nature of the data set: Cell proliferation assay. The class given is cell-based, Homo sapiens. As to conditions: NCI-H1581, lung, NSCLC, 72 hours. The method, then:
as §2

The next data set concerns Huh-1. Put plainly: Cell proliferation assay. It counts as cell-based, Homo sapiens. To be noted: Huh-1, liver, hepatocellular carcinoma, 72 hours. The procedure:
as §2

In the next data set the test system is SNU-398. Nature of the data set: Cell proliferation assay. To be noted: SNU-398, liver, hepatocellular carcinoma, 72 hours. It counts as cell-based, Homo sapiens. The procedure:
as §2

Another data set relates to SK-HEP-1. Nature of the data set: Cell proliferation assay. The class given is cell-based, Homo sapiens. As to conditions: SK-HEP-1, liver, hepatocellular carcinoma, 72 hours. The procedure: as §2
A further data set deals with U87-MG. Put plainly: Cell proliferation assay. As to conditions: brain, glioblastoma, 72 hours. It counts as cell-based, Homo sapiens. The procedure:
as §2

For a further data set, the system named is U87-luc tumor cells. Nature of the data set: Orthotopic U87-luc glioblastoma xenograft. It counts as in vivo, BALB/c nude mice. To be noted: for TGI (%) / Increase in median survival time (%): 42 days; for TGI (%): measured day 21, bioluminescence; for Increase in median survival time (%): versus vehicle group. The method, then: as §1, with “libitum.” for “libitum. For subcutaneous models, female BALB/c nude mice were inoculated at 4–8 weeks old with 3×10^6–1×10^7 tumor cells (see Table 1 for xenograft model cell types) in the right flank for tumor development. Randomization was performed when the mean tumor volume reached 118–171 mm^3.”
In a GBM orthotopic xenograft study, female BALB/c nude mice were inoculated intracranially at 6–8 weeks old with 3×10^5 U87-luc tumor cells plus Matrigel (Corning Life Sciences, Tewksbury, MA, USA) in a 4:1 ratio in PBS at the right frontal lobe. Tumor growth was quantified using intraperitoneal administration of 150 mg/kg luciferin to anesthetized mice, and tumor bioluminescence was measured using an IVIS Lumina II imaging system (PerkinElmer Inc.). In one study, mice were randomized at day 6 after tumor implantation (mean bioluminescence of 2.81×10^7 photons/sec), and in the other, mice were randomized at day 14 or day 15 (mean bioluminescence of 7.49×10^6 photons/sec).
Statistical analysis of differences in mean tumor volume among groups was conducted via an independent samples t-test or one-way analysis of variance (ANOVA; two-sided Dunnett’s test). For comparison among three or more groups, a one-way ANOVA was performed. Multiple comparison procedures were applied after ANOVA when significant F-statistics (ratio of treatment variance to error variance) were obtained. Comparisons between groups were carried out using the Games test. P<0.05 was considered to be statistically significant. Survival times were analyzed using the Kaplan–Meier method, with curves constructed for each group and the log-rank (Mantel–Cox) test used to compare survival curves between groups. Body weight change was calculated based on the weight on the first day of dosing.

A further data set deals with LI1088. Put plainly: Subcutaneous LI1088 liver cancer xenograft. It counts as in vivo, BALB/c nude mice. As to conditions: 25 mg/kg daily oral, 28 days, measured day 25. The method, then:
as §1

Another data set deals with MCF-7 tumor cells. Put plainly: Orthotopic MCF-7 breast cancer xenograft. The class given is in vivo, NOD/SCID mice. The procedure: as §1, with “libitum.” for “libitum. For subcutaneous models, female BALB/c nude mice were inoculated at 4–8 weeks old with 3×10^6–1×10^7 tumor cells (see Table 1 for xenograft model cell types) in the right flank for tumor development. Randomization was performed when the mean tumor volume reached 118–171 mm^3.”
In two breast cancer orthotopic xenograft models, female NOD/SCID mice were subcutaneously implanted with an estrogen pellet (17β-estradiol; Innovative Research of America, Sarasota, FL, USA) one day before tumor inoculation. Mice were inoculated at 6–7 weeks old with 2×10^7 MCF-7 tumor cells plus Matrigel in a 1:1 ratio in PBS at a mammary fat pad or in the right flank. Randomization was performed when the mean tumor volume reached 135–138 mm^3.

Where [1] appears, read: 25 mg/kg daily oral, 21 days, measured day 21, 8 mice.
Where [2] appears, read: 25 mg/kg daily oral, 28 days, measured day 25, 10 mice.

As usually defined, the pIC50 is the negative decadic logarithm of the IC50, by convention in mol/L. Low readings indicate a high IC50, high ones a low IC50.

Take `CCN1CCN(Cc2ccc(Nc3ncc(F)c(-c4cc(F)c5nc(C)n(C(C)C)c5c4)n3)nc2)CC1` [Abemaciclib, abemaciclib, reference compound]: the “TGI (%)” value was 24.9% with BN2289 (25 mg/kg daily oral); 79.0% with U87-luc tumor cells (150 mg/kg daily oral); 22.4% in the data set on LI1088; 33.0% with MCF-7 tumor cells (setting [1]); 48.6% in the data set with MCF-7 tumor cells (setting [2]). Besides, the pIC50 with LS174T (Homo sapiens) is 7.02; in the data set with Caco-2 (Homo sapiens), 6.40; in the data set on SK-MES-1 (Homo sapiens) it was 6.83; in the data set on IMR32 (Homo sapiens, IMR-32), 7.60; in the data set with NCI-H1299 (Homo sapiens), 6.33; with SK-N-AS (Homo sapiens) it was 6.86. Moreover, the pIC50 is 5.49 in the data set with NCI-H1581 (Homo sapiens); 6.44 in the data set on Huh-1 (Homo sapiens); 6.76 in the data set with SNU-398 (Homo sapiens); 8.22 in the data set with SK-HEP-1 (Homo sapiens, SK-HEP1); 6.97 in the data set with U87-MG (Homo sapiens, U-87 MG). Besides, the “Increase in median survival time (%)” value with U87-luc tumor cells (150 mg/kg daily oral) was found to be 54.4%.

Turning to `CC1=Nc2c(F)cc(-c3nc(Nc4ccc(C5CCN(C)CC5)cn4)ncc3F)cc2C12CCCC2` [GLR2007], the “TGI (%)” value in the data set on BN2289 (5 mg/kg daily oral) amounted to 4.9%; with BN2289 (25 mg/kg daily oral) it was 39.4%; in the data set on BN2289 (50 mg/kg daily oral) it was 56.4%; in the data set on U87-luc tumor cells (12.5 mg/kg daily oral) it was 86.3%; with LI1088 it was 57.7%; in the data set on MCF-7 tumor cells (10 mg/kg daily oral, 21 days, measured day 21, 8 mice), 43.5%. Moreover, the “TGI (%)” value worked out at 37.4% with MCF-7 tumor cells (setting [1]); 61.4% with MCF-7 tumor cells (setting [2]); 49.6% in the data set on MCF-7 tumor cells (50 mg/kg daily oral, 21 days, measured day 21, 8 mice). Further, the pIC50 with LS174T was 6.80; with Caco-2, 6.34; in the data set on SK-MES-1, 7.17; in the data set with IMR32, 7.68; in the data set with NCI-H1299, 6.25; with SK-N-AS it was 7.18. Also, the negative-log IC50 (pIC50) was 5.95 in the data set with NCI-H1581; 6.58 in the data set on Huh-1; 7.29 in the data set with SNU-398; 7.44 with SK-HEP-1; 7.80 in the data set with U87-MG. In the data set with U87-luc tumor cells (12.5 mg/kg daily oral), the “Increase in median survival time (%)” value is reported as 50.0%. For the same compound, the “Weight loss, GLR2007 versus abemaciclib groups” value in the data set with U87-luc tumor cells (orthotopic U87-luc xenograft mice treated for 42 days) is given as “comparable”.
